Experimental data: patent US8168651B2, “Protein kinase modulators” (Cylene Pharmaceuticals, Inc., priority 2008, dated 2012)

What was measured:
Test in all cases: Standardized radiometric kinase assays, percentage of activity at 0.5 μM;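 also: Read-out is ³³P-labelled substrate protein phosphorylated by each kinase, captured on filters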
[1] = biological target: each individual kinase of the panel (Homo sapiens, UniProt O43353)
[2] = biological target: each individual kinase of the panel (Homo sapiens, UniProt O96013)
[3] = biological target: each individual kinase of the panel (Homo sapiens, UniProt P29317)
[4] = biological target: each individual kinase of the panel (Homo sapiens, UniProt P29320)
[5] = biological target: each individual kinase of the panel (Homo sapiens, UniProt P48730)
[6] = biological target: each individual kinase of the panel (Homo sapiens, UniProt P53667)
[7] = biological target: each individual kinase of the panel (Homo sapiens, UniProt P54762)
[8] = biological target: each individual kinase of the panel (Homo sapiens, UniProt Q00535)
[9] = biological target: each individual kinase of the panel (Homo sapiens, UniProt Q02156)
[10] = biological target: each individual kinase of the panel (Homo sapiens, UniProt Q09013)
[11] = biological target: each individual kinase of the panel (Homo sapiens, UniProt Q16539)
[12] = biological target: each individual kinase of the panel (Homo sapiens, UniProt Q7KZI7)
[13] = biological target: each individual kinase of the panel (Homo sapiens, UniProt Q9BYP7)
[14] = biological target: each individual kinase of the panel (Homo sapiens, UniProt Q9UHD2)
[15] = biological target: each individual kinase of the panel (Homo sapiens, UniProt Q9UPE1)

each individual kinase of the panel (Homo sapiens, UniProt P54762), sequence (P54762 18-984 limits assumed): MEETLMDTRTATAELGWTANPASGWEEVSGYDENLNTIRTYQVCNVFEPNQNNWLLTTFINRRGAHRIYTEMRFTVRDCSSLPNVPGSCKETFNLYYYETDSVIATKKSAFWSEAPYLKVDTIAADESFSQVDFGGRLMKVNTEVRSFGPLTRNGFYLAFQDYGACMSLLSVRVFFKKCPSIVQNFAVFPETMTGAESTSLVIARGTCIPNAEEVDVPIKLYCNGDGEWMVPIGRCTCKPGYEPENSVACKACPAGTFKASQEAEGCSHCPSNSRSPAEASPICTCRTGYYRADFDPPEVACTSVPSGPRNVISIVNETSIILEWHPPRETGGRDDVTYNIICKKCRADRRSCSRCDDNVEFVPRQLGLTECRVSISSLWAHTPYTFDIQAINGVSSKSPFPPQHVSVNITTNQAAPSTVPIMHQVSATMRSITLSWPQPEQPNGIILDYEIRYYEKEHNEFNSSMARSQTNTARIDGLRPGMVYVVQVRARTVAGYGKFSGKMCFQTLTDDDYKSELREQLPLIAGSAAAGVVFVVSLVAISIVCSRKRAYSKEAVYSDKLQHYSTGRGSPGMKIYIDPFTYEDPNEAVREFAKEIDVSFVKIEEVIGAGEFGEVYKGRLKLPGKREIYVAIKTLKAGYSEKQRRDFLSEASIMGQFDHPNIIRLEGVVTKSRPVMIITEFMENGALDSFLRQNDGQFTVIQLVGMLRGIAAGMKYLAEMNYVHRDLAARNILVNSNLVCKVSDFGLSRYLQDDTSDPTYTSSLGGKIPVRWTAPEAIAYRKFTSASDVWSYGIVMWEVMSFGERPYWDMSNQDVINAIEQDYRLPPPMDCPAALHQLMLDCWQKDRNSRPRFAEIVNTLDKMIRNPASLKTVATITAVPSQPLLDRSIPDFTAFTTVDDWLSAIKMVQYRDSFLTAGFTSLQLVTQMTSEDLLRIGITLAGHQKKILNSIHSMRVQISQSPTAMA
each individual kinase of the panel (Homo sapiens, UniProt Q16539), sequence (Q16539 2-360 limits assumed): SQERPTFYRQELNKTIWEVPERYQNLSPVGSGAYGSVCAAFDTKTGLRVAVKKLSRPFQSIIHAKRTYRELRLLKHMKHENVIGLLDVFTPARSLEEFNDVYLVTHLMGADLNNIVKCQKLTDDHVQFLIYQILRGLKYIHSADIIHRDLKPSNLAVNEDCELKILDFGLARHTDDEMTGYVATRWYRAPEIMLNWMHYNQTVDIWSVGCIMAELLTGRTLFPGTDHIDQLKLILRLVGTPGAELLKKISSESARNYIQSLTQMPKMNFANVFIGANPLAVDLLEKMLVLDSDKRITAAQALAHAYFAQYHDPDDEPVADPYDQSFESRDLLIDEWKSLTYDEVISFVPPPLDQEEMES
each individual kinase of the panel (Homo sapiens, UniProt P29317), sequence (P29317 24-976 limits assumed): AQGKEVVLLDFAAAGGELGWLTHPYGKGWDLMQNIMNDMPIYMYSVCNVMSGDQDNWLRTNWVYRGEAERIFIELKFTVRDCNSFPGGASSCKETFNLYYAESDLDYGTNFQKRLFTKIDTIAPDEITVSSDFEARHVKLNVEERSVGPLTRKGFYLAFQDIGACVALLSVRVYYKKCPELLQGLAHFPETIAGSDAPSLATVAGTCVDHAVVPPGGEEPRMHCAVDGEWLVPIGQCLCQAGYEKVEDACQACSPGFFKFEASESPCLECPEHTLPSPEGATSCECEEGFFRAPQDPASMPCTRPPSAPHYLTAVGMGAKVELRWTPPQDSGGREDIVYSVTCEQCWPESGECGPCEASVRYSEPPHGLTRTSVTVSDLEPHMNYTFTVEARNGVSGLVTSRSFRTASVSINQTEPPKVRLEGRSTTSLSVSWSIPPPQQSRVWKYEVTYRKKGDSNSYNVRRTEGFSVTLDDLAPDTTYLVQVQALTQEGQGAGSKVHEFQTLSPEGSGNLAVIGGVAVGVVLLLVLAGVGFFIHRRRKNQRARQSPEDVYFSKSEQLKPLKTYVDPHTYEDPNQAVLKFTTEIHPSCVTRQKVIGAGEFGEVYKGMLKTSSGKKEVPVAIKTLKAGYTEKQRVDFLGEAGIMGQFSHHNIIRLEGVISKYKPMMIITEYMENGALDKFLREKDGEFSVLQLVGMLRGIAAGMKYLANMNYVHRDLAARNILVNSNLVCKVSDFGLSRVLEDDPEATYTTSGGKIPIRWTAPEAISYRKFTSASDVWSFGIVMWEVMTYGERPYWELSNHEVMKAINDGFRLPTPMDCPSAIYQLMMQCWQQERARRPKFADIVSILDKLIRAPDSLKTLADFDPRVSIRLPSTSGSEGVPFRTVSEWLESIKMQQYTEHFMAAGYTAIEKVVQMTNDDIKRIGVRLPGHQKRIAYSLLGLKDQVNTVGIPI
each individual kinase of the panel (Homo sapiens, UniProt P29320), sequence (P29320 21-983 limits assumed): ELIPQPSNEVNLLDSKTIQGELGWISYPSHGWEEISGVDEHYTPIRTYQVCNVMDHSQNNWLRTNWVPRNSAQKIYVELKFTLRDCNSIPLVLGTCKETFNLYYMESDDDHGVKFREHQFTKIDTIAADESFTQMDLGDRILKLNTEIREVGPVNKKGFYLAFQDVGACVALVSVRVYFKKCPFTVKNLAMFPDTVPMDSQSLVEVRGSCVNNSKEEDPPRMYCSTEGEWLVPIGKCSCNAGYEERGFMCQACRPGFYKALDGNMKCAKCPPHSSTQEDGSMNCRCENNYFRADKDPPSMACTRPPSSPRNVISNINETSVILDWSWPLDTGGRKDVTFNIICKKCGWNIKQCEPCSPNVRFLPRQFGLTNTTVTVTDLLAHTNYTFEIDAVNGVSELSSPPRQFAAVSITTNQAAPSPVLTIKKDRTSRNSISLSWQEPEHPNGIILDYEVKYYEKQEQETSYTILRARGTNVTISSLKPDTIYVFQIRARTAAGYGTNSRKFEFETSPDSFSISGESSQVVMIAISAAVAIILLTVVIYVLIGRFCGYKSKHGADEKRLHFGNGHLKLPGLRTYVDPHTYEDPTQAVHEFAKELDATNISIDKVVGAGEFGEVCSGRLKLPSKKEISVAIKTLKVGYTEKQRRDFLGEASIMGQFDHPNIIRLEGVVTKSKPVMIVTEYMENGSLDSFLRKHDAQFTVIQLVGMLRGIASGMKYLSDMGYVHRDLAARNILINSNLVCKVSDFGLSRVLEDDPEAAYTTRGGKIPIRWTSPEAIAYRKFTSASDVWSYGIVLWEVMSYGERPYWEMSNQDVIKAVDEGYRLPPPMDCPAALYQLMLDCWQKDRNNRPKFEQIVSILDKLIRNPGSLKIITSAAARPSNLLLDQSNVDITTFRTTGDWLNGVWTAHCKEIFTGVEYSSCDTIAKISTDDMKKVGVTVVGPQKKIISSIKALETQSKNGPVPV

Compound: C#Cc1cccc(Nc2nc3cc(C(=O)O)ccc3c3cncnc23)c1 [drawing 1135]
- RIPK2 percentage of activity [1]: 2%
- PAK4 percentage of activity [2]: −12%
- EPHA2 percentage of activity [3]: 2%
- EPHA3 percentage of activity [4]: −6%
- CK1 delta percentage of activity [5]: −4%
- LIMK1 percentage of activity [6]: 3%
- EPHB1 percentage of activity [7]: 1%
- CDK5/p25 percentage of activity [8]: 4%
- CDK5/p35 percentage of activity [8]: −7%
- PRKCE percentage of activity [9]: 0%
- DMPK percentage of activity [10]: 4%
- p38-alpha percentage of activity [11]: 1%
- PAR-1B alpha percentage of activity [12]: 7%
- WNK3 percentage of activity [13]: −17%
- TBK1 percentage of activity [14]: 70%
- MSSK1 percentage of activity [15]: −3%
